The values below come from patent US7186703B2, “Derivatives of branched-chain lipophilic molecules and uses thereof” (D-Pharm Ltd., priority 2000, dated 2007).

Several values for one entry are separate records, joined by “and”; a condition that tells them apart may be missing. Identical values can stand only once. Like-named read-outs stand apart in the source and are kept apart here.

Series [1] deals with blood brain barrier (BBB). Kind of series: BBB opening in C6 glioma-bearing rats, Evans blue accumulation in non-tumor brain. The class given is in vivo, Sprague Dawley rats. Particulars: concentrations around EC50 (Mannitol 25%), unilateral 30 s infusion. The method, then:
(§1) In order to study the ability of DP-BFA compounds to modulate blood tumor barrier (BTB), a model system of C6 glioma-bearing rats, was employed.
(§2) Sprague Dawley (SD) rats were inoculated with C6 gliosarcoma cells following the procedure described by Bartus et al. (Exp Neurol (1996); 142:14–28). A small burr-hole was made in the frontal scalp bone of the rat fixed in a stereotaxis apparatus. Using a Hamilton syringe, 10 μl or 5 μl of media, containing 2.5×10^5 C6 gliosarcoma cells were inoculated into the frontal cortex. Coordinates were 1 mm posterior of bregma, 2.5 mm—lateral, and 3 mm—depth. The needle remained in the place for 5 min. After removal of the needle, fascia and scalp were sutured. The rats were checked 6–8 days after inoculation, when tumors of sufficient size (20–60 mg) had developed. The tumor was weighed after F—Na visualization and dissection. Parts of the rats' brains were subject to histological examinations and monitored for Evans Blue and Fluorescein uptake into ipsilateral tumour tissue, peritumoural tissue and contralateral tissue.
(§3) The bilateral tumor model system of C6 glioma-bearing rats described in Example 23 above was employed for screening of various derivatives of DP-BFA for their ability to permeabilize the blood brain barrier (BBB) in comparison to their effect on the blood tumor barrier (BTB). The experimental procedure described in Example 23 was followed except that the tumor-bearing rats were further treated with DP-BFA. The tested compounds, at concentrations around their EC50 values, were unilaterally infused into the external carotis artery over 30 seconds as described in Example 17. Animals treated with vehicle only serve as a control group. Permeabilization effect was quantitated by measuring accumulation of albumin bound Evans blue dye in tumor (T) versus non-tumor (NT) tissues.
(§4) Specificity index is defined as the ratio between the levels of EB accumulated in tumor and those accumulated in non-tumor brain tissues (T/NT).

Series [2] relates to blood tumor barrier (BTB) of C6 glioma. Kind of series: BTB opening in C6 glioma-bearing rats, Evans blue accumulation in tumor. It is filed as in vivo, Sprague Dawley rats. The conditions noted are these: for EC50: C6 glioma-bearing rats; for BTB EB μg/g Tumor: concentrations around EC50 (Mannitol 25%), unilateral 30 s infusion; for Specificity Tumor/Non-tumor (T/NT): ratio of EB accumulated in tumor and non-tumor brain. As to the method:
as §1, §2, §3, §4

Series [3] has as its system C6 gliosarcoma tumor. Kind of series: Anti-tumor activity in C6 glioma-bearing rats, tumor volume (Example 27). It is filed as in vivo, rat. Particulars: for anti-tumor effect on glioma growth (in words): rat, in vivo; for Tumor volume (mm^3) ± SE: control 8.1 ± 2.22. The source says: The anti-tumor effects of various P-BFAs were studied in the in vivo model system described above in Example 17. Tested P-BFAs were intra-arterially administered at the concentrations previously determined as being effective in permeabilization of the BBB and BTB for Evans blue and Fluorescein extravasation. The experimental procedure for tumor inoculation, as described in Example 23, was followed.
On Day 3–4 following inoculation of the C6 gliosarcoma cells, rat were cannulated through external carotid artery and the tested P-BFAs were infused over 30 seconds, as described in Example 17, except that in this experiment no markers were administered. The treated rats were maintained until Day 7–9, and then sacrificed. Coronal sections were obtained, stained by eosin-hematoxylin, and reviewed histologically to determine tumor volume. Animals treated with vehicle only serve as control. Standard error and Student's test for statistical significance were used.

The nature of series [4]: Octanol/saline solubility and partition coefficient, shake-flask technique. The conditions noted are these: for LogPc (octanol-saline partition coefficient) / logD: octanol/physiological saline; for LogPc (octanol-saline partition coefficient) / Water mg/ml (solubility in aqueous solution): sodium salts; for Water mg/ml (solubility in aqueous solution): physiological saline as aqueous solution; for Octanol mg/ml (solubility in octanol): sodium salts of the branched fatty acids and their PO4 derivatives.
Procedure: The lipophilicity values of various derivatives of branched fatty acids were estimated by comparing the solubility of these compounds in organic versus aqueous solutions. Octanol and physiological saline were used, respectively, as the organic and aqueous solutions. The partition coefficient (Pc) value, i.e. the octanol/saline distribution was measured by the shake-flask technique.

Series [5] concerns SKBR-3 breast cancer cell line. Kind of series: MTT cytotoxicity, SKBR-3. The class given is cell-based, human. The conditions noted are these: three days, read-out: EC50 (50% reduction in cell viability). As to the method:
(§5) The cytotoxic activity of various phospho-derivatives of branched-chain fatty acids (DP-BFAs) was assayed in vitro in cell cultures that include normal and malignant cell types. The following cell systems were used: • Primary fibroblasts (human) • Normal bone marrow (BM) cells (mouse) • Primary bronchial epithelial cells (human, from Clonetics, cat. no. CC-2541) • Caco-2—colon cancer cell line (human, ATTC, HTB-37) • C6 glioma cell line (rat, ATCC, CRL-2199) • Neuro2a—neuroblastoma cell line (mouse, ATCC, CCL-131) • SKBR-3—breast cancer cell line (human, ATTC, HTB-30) • HL60—myeloid leukemia cell line (human, ATCC, CCL-240) • U937—myeloid leukemia cell line (human)
(§6) Cells were seeded in a microtiter plate in MEM containing 2 mM L-glutamine, 100 units/ml penicillin, 100 ug/ml streptomycin and 10% FCS at 37° C. The cultured cells were incubated, during their linear growth phase in the absence (control group) or presence of various DP-BFAs as indicated. The final concentrations of the tested DP-BFAs ranged from 1.5 to 200 microMolars. At the end of the incubation period, which was five days for the bone marrow cells and three days for all the other cell lines, the cytotoxic effect of the added P-BFA on the cells was estimated by using the colorimetric MTT assay. The MTT assay (Mosmann (1983) J. Immunol Methods 65: 55–63) measures mitochondrial reductase activity and serves for quantitative assessment of cellular viability. Drug concentration that causes 50% reduction in cell viability in comparison to the control group, is defined as EC50. The EC50 values of the tested DP-BFA compounds were calculated from dose response curves established for each of the different assayed cell lines.
(§7) Each EC50 value is an average of EC50 values derived from 1–5 independent experiments.

Series [6] has as its system HL60 myeloid leukemia cell line. Kind of series: MTT cytotoxicity, HL60. Particulars: HL60, three days, read-out: EC50 (50% reduction in cell viability). It is filed as cell-based, human. The method, then:
as §5, §6, §7

Series [7] relates to U937 myeloid leukemia cell line. Kind of series: MTT cytotoxicity, U937. The conditions noted are these: U937, three days, read-out: EC50 (50% reduction in cell viability). The class given is cell-based, human. As to the method:
as §5, §6, §7

Series [8] has as its system Caco-2 colon cancer cell line. Kind of series: MTT cytotoxicity, Caco-2. The class given is cell-based, human. Particulars: Caco-2, three days, read-out: EC50 (50% reduction in cell viability). As to the method:
as §5, §6, §7

For series [9], the system named is Neuro2a neuroblastoma cell line. Kind of series: MTT cytotoxicity, Neuro2a. The class given is cell-based, mouse. The conditions noted are these: three days, read-out: EC50 (50% reduction in cell viability). As to the method: as §5, §6, §7
The subject of series [10] is Primary bronchial epithelial cells. Kind of series: MTT cytotoxicity, normal primary epithelial cells. The class given is cell-based, human. The conditions noted are these: Normal primary epithel, three days, read-out: EC50 (50% reduction in cell viability). The method, then:
as §5, §6, §7

Series [11] deals with Primary fibroblasts. Kind of series: MTT cytotoxicity, normal primary fibroblasts. The class given is cell-based, human. Particulars: three days, read-out: EC50 (50% reduction in cell viability). As to the method:
as §5, §6, §7

The mark [12] stands for this setting: octanol, organic solvent or mixture.
[13] abbreviates: physiological saline, saline or isotonic.
Setting [14] is: Homo sapiens, Primary bronchial epithelial cell, 72 h.

The term EC50 denotes the midpoint of the concentration-response curve. “2-(4′-Hexadecanoyloxy)ethoxyethyl phosphate [3,12-DEG-PO4]”: in series [1], the “BBB EB μg/g Non-tumor brain” value was 2.0 ± 0.2 µg/g. In [2], the response was half-maximal at 7 ± 2 µM (EC50); the “BTB EB μg/g Tumor” value was 34 ± 8 µg/g; the “Specificity Tumor/Non-tumor (T/NT)” value is 22 and 22 ± 5. Further, the “anti-tumor effect on glioma growth (in words)” value in series [3] is reported as “most pronounced anti-tumor effect”. Further, in series [4], the “LogPc (octanol-saline partition coefficient)” value was found to be 1.31, the “Water mg/ml (solubility in aqueous solution)” value (shortened to “Water mg/ml”) came to 8 mg/mL and the “Octanol mg/ml (solubility in octanol)” value is above 5 mg/mL.
What is called solubility is how much of the substance goes into solution per volume. What is called logD is the decadic logarithm of the distribution of all forms, ionised or not, between an organic phase and buffer at a given pH. Lower therefore signals lower lipophilicity. As for `CCCCCCCCCCCCC(CCC)C(=O)OCCOCCOP(=O)([O-])OCC[N+](C)(C)C` (stereo not shown) [3,12-DEG-PC, 2-(2′-Propyltetradecanoyloxy)ethoxyethylphosphocholine], the “BBB EB μg/g Non-tumor brain” value in [1] turned out to be 5 µg/g. Also, the EC50 in series [5] (Homo sapiens, SK-BR-3, 72 h) came to 40 µM; in series [2] (Rattus norvegicus), 60 µM; in series [6] (Homo sapiens, HL-60, 72 h), 11 µM; in [7] (Homo sapiens, U-937, 72 h), 6 µM; in series [8] (Homo sapiens, 72 h), 113 µM; in series [9] (Mus musculus, N2a, 72 h) it was 134 µM. In addition, the EC50 was 90 µM in series [10] (setting [14]) and 170 µM in series [11] (Homo sapiens, Fibroblast, 72 h). Besides, in series [2], the “BTB EB μg/g Tumor” value is 11 µg/g. Also, the “Specificity Tumor/Non-tumor (T/NT)” value in series [2] is listed as 2. For the same compound, the “Tumor volume (mm^3) ± SE” value in series [3] (P-BFA 60 μM i.a.) is given as 3.9 ± 1.0 mm^3. For the same compound, the values for the solubility in series [4] (setting [12]) and in [4] (setting [13]) were above 50000 µg/mL and above 10000 µg/mL, respectively. Also, in [4], the logD amounted to 0.73.
On to `CCCCCCCCCCCCC(CCC)C(=O)OCCOCCOP(=O)([O-])[O-].[Na+].[Na+]` (stereo not shown) [3,12-DEG-PO4Na2, 2-[2′-(2″-Propyltetradecanoyloxy)-ethoxy]ethyl Disodium Phosphate], for which the EC50 in [5] was 60 µM; in series [7], 25 µM; in series [8], 40 µM; in series [9], 58 µM; in series [10], above 200 µM; in series [11], 65 µM. The “Tumor volume (mm^3) ± SE” value in [3] (P-BFA 30 μM i.a.) came out at 1.6 ± 0.4 mm^3.
Consider `CCCCCCCCCCCCC(CCC)C(=O)OCCOP(=O)([O-])OCC[N+](C)(C)C` (stereo not shown) [3,12-MEG-PC, 2-(2′-Propyltetradecanoyloxy)ethylphosphocholine], for which the “BBB EB μg/g Non-tumor brain” value in series [1] came to 6 µg/g. The EC50 in [5] (Homo sapiens, SK-BR-3, 72 h) turned out to be 50 µM; in series [2] (Rattus norvegicus), 20 µM; in [6] (Homo sapiens, HL-60, 72 h), 20 µM; in series [7] (Homo sapiens, U-937, 72 h) it was 9 µM; in series [8] (Homo sapiens, 72 h) it was 75 µM; in series [9] (Mus musculus, N2a, 72 h) it was 70 µM. The EC50 in [10] (setting [14]) is 94 µM; in [11] (Homo sapiens, Fibroblast, 72 h), 160 µM. The “BTB EB μg/g Tumor” value in [2] is 12 µg/g. Besides, the “Specificity Tumor/Non-tumor (T/NT)” value in series [2] is 2. Besides, in series [3] (P-BFA 10 μM i.a.), the “Tumor volume (mm^3) ± SE” value turned out to be 2.88 ± 0.6 mm^3. Also, in [3], the “anti-tumor effect on glioma growth (in words)” value is “significant anti-tumor activity”. Besides, the solubility in series [4] (setting [12]) and in series [4] (setting [13]) was above 10000 µg/mL each time. For the same compound, the logD in series [4] was 1.22.
Take `CCCCCCCCCCCCC(CCC)C(=O)[O-].[Na+]` (stereo not shown) [3,12-Na, reference compound]: the “BBB EB μg/g Non-tumor brain” value in series [1] was determined as 43 ± 9 µg/g. In addition, the EC50 in series [5] came to 130 µM; in [2], 22 ± 4 µM; in series [7], 68 µM; in series [8], 100 µM; in series [9], 76 µM. In addition, in series [2], the “BTB EB μg/g Tumor” value came to 44 ± 8 µg/g. The “Specificity Tumor/Non-tumor (T/NT)” value in series [2] was 1.1 ± 0.3. Further, in series [4], the “LogPc (octanol-saline partition coefficient)” value is given as 0.99. Further, the “Water mg/ml” value in series [4] was above 10 mg/mL. In addition, the “Octanol mg/ml (solubility in octanol)” value in series [4] is above 20 mg/mL.
Consider `CCCCCCCCCCCCC(CCC)OP(=O)([O-])OCC[N+](C)(C)C` (stereo not shown) [3,12-PC, 4-Hexadecanyl phosphocholine], for which the “BBB EB μg/g Non-tumor brain” value in [1] worked out at 10 ± 2 µg/g. In [5], the EC50 was 62 µM. In addition, in [2], the EC50 is 52 ± 7 µM, the “BTB EB μg/g Tumor” value was 17 ± 2 µg/g and the “Specificity Tumor/Non-tumor (T/NT)” value was 1.8 ± 0.5. Further, the “Tumor volume (mm^3) ± SE” value in series [3] (P-BFA 50 μM i.a.) stood at 3.8 ± 0.8 mm^3. The EC50 in series [6] was 47 µM. For the same compound, the EC50 in series [8] was determined as 150 µM. In addition, in [4], the “Water mg/ml” value is above 10 mg/mL and the “Octanol mg/ml (solubility in octanol)” value was above 10 mg/mL.
